Measurements published in patent US9346782B2, “Alkyl linked quinolinyl modulators of RORγt” (Janssen Pharmaceutica NV, priority 2013, dated 2016).

What was measured:
human RORγt LBD = human RORγt LBD (Homo sapiens (Human), UniProt P51449); assay: RORγt Reporter Assay; format: cell-based; conditions: for IC50 / RORγt reporter Assay, % inhibition @ 6 μM: HEK293T cells; for inhibition at 6 µM: HEK-293T, read-out: RORγt reporter Assay, % inhibition @ 6 μM, HEK293T cells, 6 μM
Source text: A reporter assay was used to test functional activity of RORγt modulatory compounds on transcriptional activation driven by the RORγt LBD. Cells used in the assay were co-transfected with two constructs. The first construct, pBIND-RORγt LBD, contained the wild type human RORγt LBD fused to the DNA binding domain of the GAL4 protein. The second construct, pGL4.31 (Promega Cat no. C935A), contained multiple GAL4 responsive DNA elements upstream of firefly luciferase. […] The mutant construct was called pBIND-RORγt-AF2.
The pBIND vector contains the GAL4 DNA Binding Domain (GAL4 DBD) and the renilla luciferase gene under control of the SV40 promoter. Renilla luciferase expression serves as a control for transfection efficiency and cell viability.
The reporter assay was performed by transiently transfecting HEK293T cells with 5 μg of pBIND-RORγt LBD or pBIND-RORγt LBD-AF2 and 5 μg pGL4.31 (Promega Cat no. C935A) using Fugene 6 (Invitrogen Cat no. E2691) at a 1:6 ratio of DNA:Fugene 6 in a T-75 flask in which cells were at least 80% confluent. Twenty four hours after bulk transfection, cells were plated into 96-well plates at 50,000 cells/well in phenol-red free DMEM containing 5% Lipid Reduced FCS and Pen/Strep. Six hours after plating, cells were treated with compounds for 24 hours. Media was removed and cells were lysed with 50 μL 1× Glo Lysis Buffer (Promega). Dual Glo Luciferase Reagent (50 μL/well) was then added and firefly luciferase luminescence was read on an Envision after a ten minute incubation. Finally, Stop and Glo reagent (50 μL/well) was added and renilla luciferase luminescence was read on an Envision after a ten minute incubation. To calculate the effect of compounds on RORγt activity, the ratio of firefly to renilla luciferase was determined and plotted against compound concentration. Agonist compounds increase RORγt-driven luciferase expression, and antagonist or inverse agonist compounds decrease luciferase expression.

[1] = system: IL-17 production by CD4 T cells; assay: Human Th17 Assay; format: cell-based; conditions: 3 days
Source text: The human Th17 assay tests the effect of RORγt modulatory compounds on IL-17 production by CD4 T cells under conditions which favor Th17 differentiation. Total CD4^+ T cells were isolated from the peripheral blood mononuclear cells (PBMC) of healthy donors using a CD4^+ T cell isolation kit II, following the manufacturer's instructions (Miltenyi Biotec). Cells were resuspended in a medium of RPMI-1640 supplemented with 10% fetal bovine serum, penicillin, streptomycin, glutamate, and β-mercaptoethanol and were added to 96-well plates at 1.5×10^5 per 100 μL per well. 50 μL of compound at titrated concentrations in DMSO were added into each well at final DMSO concentration at 0.2%. Cells were incubated for 1 hour, then 50 μL of Th17 cell differentiation medium was added to each well. The final concentrations of antibodies and cytokines (R&D Systems) in differentiation medium were: 3×10^6/mL anti-CD3/CD28 beads (prepared using human T cell activation/expansion kit, Miltenyi Biotec), 10 μg/mL anti-IL4, 10 μg/mL anti-IFNγ, 10 ng/mL IL1β, 10 ng/mL IL23, 50 ng/mL IL6, 3 ng/mL TGFβ and 20 U/mL IL2. Cells were cultured at 37° C. and 5% CO2 for 3 days. Supernatants were collected and the accumulated IL-17 in culture was measured by using MULTI-SPOT® Cytokine Plate following manufacture's instruction (Meso Scale Discovery). The plate was read using Sector Imager 6000, and IL-17 concentration was extrapolated from the standard curve. The IC50s were determined by GraphPad.

human RORγt LBD, sequence (P51449 258-518): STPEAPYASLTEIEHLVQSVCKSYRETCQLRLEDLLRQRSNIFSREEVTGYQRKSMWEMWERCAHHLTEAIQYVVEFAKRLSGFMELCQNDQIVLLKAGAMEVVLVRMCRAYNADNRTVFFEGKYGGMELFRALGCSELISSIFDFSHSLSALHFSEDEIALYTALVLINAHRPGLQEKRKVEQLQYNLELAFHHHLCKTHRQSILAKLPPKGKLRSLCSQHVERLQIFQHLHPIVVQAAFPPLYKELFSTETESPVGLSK

| IC50 (human RORγt LBD) [µM] | inhibition at 6 µM (human RORγt LBD) [%] | IC50 [1] [µM] | RORγt reporter Assay, % inhibition @ 6 μM (human RORγt LBD) [%] | IC50 ([1]; Homo sapiens, CD4+ T, 72 h) [µM] | Compound |
| --- | --- | --- | --- | --- | --- |
| 0.21 | 98 | 0.87 |  |  | COc1nc2ccc(C(C)(O)c3cnnn3C)cc2c(Cl)c1Cc1ccc(C(F)(F)F)cc1 (single isomer, unassigned) [Example 11b, 1-(4-Chloro-2-methoxy-3-(4-(trifluoromethyl)benzyl)quinolin-6-yl)-1-(1-methyl-1H-1,2,3-triazol-5-yl)ethanol] |
| 0.015 |  | 0.057 | 99 |  | COc1nc2ccc(C(C)(O)c3cnnn3C)cc2c(Cl)c1Cc1ccc(C(F)(F)F)cc1 (single isomer, unassigned) [Example 11c, 1-(4-Chloro-2-methoxy-3-(4-(trifluoromethyl)benzyl)quinolin-6-yl)-1-(1-methyl-1H-1,2,3-triazol-5-yl)ethanol] |
| 0.5 | 102 | 2.1 |  |  | COc1nc2ccc(C(C)(O)c3cnc(C)n3C)cc2c(Cl)c1Cc1ccc(C(F)(F)F)cc1 (single isomer, unassigned) [Example 12b, 1-(4-Chloro-2-methoxy-3-(4-(trifluoromethyl)benzyl)quinolin-6-yl)-1-(1,2-dimethyl-1H-imidazol-5-yl)ethanol] |
| 0.041 |  | 0.08 | 102 |  | COc1nc2ccc(C(C)(O)c3cnc(C)n3C)cc2c(Cl)c1Cc1ccc(C(F)(F)F)cc1 (single isomer, unassigned) [Example 12c, 1-(4-Chloro-2-methoxy-3-(4-(trifluoromethyl)benzyl)quinolin-6-yl)-1-(1,2-dimethyl-1H-imidazol-5-yl)ethanol] |

Continued, molecule first:

| Compound | IC50 (human RORγt LBD) [µM] | inhibition at 6 µM (human RORγt LBD) [%] | IC50 [1] [µM] | RORγt reporter Assay, % inhibition @ 6 μM (human RORγt LBD) [%] | IC50 ([1]; Homo sapiens, CD4+ T, 72 h) [µM] |
| --- | --- | --- | --- | --- | --- |
| COc1nc2ccc(C(C)(O)c3ccc(C)nc3C)cc2c(Cl)c1Cc1ccc(C(F)(F)F)cc1 (single isomer, unassigned) [Example 13b, 1-(4-Chloro-2-methoxy-3-(4-(trifluoromethyl)benzyl)quinolin-6-yl)-1-(2,6-dimethylpyridin-3-yl)ethanol] | 0.2 | 101 | 0.17 |  |  |
| COc1nc2ccc(C(C)(O)c3ccc(C)nc3C)cc2c(Cl)c1Cc1ccc(C(F)(F)F)cc1 (single isomer, unassigned) [Example 13c, 1-(4-Chloro-2-methoxy-3-(4-(trifluoromethyl)benzyl)quinolin-6-yl)-1-(2,6-dimethylpyridin-3-yl)ethanol] | 0.046 |  | 0.06 | 100 |  |
| C#CC(O)(c1ccc2nc(OC)c(Cc3ccc(C(F)(F)F)cc3)c(Cl)c2c1)c1cnc(C)n1C (single isomer, unassigned) [Example 14b, 1-(4-Chloro-2-methoxy-3-(4-(trifluoromethyl)benzyl)quinolin-6-yl)-1-(1,2-dimethyl-1H-imidazol-5-yl)prop-2-yn-1-ol] | 0.066 | 84 |  |  | 0.19 |
| C#CC(O)(c1ccc2nc(OC)c(Cc3ccc(C(F)(F)F)cc3)c(Cl)c2c1)c1cnc(C)n1C (single isomer, unassigned) [Example 14c, 1-(4-Chloro-2-methoxy-3-(4-(trifluoromethyl)benzyl)quinolin-6-yl)-1-(1,2-dimethyl-1H-imidazol-5-yl)prop-2-yn-1-ol] | 0.31 |  | 0.29 | 94 |  |
